Type in all cases: cell-based, human
One assay deals with p73. Description: Immunoblot of p73. The method, then:
(§1) Immunoblot analysis. Cells were seeded in 60mm plates as described above and treated accordingly. Cells were lifted by gently scraping the plates, washed once with ice cold PBS and then lysed in lysis buffer (PBS, 1% Triton X-100, 10% glycerol) containing protease inhibitors pepstatin A (0.5 μg/ml), leupeptin (0.5 μg/ml), aprotinin (5 μg/ml), and PMSF (100 μg/ml) for 10 minutes on ice. Insoluble material was removed by centrifugation at 14,000 rpm for 15 minutes at 4° C. The supernatants were then supplemented with SDS at a final concentration of 2% and stored at −80° C. Protein concentrations were determined using the DC Protein Assay (BioRad Laboratories; Hercules, CA, USA) according to the manufacturer's instructions. 50 μg of protein per sample (unless otherwise indicated) were separated on NuPAGE 4-12% Bis-Tris gels (Invitrogen; Carlsbad, CA, USA) and transferred to nitrocellulose membranes (BioRad). Following transfer, membranes were blocked for 1 hour at room temperature in Tris-buffered saline (TBS) containing 0.1% Tween-20 and 5% nonfat dry milk and incubated overnight at 4° C. with primary antibody at a dilution of 1:2,000(actin), 1:1,000(cytochrome c, COX IV, Bax, Bak, p53, p38, P-p38), 1:500(P-JNK, JNK), 1:250 (AC, p73), or 1:400(LAMP-1, cathepsin B). Overnight incubations were performed in 5% milk in TBS-Tween. Following overnight incubation, membranes were washed three times for 10 minutes each in TBS-Tween and incubated for 1 hour at room temperature with secondary antibody in 5% milk TBS-Tween at a dilution 1:5,000 (goat anti-mouse IgG) or 1:50,000 (goat anti-rabbit). Membranes were then washed three times more and incubated for 5 minutes at room temperature with Super Signal HRP substrate (Pierce Biotechnology Inc.; Rockford, IL, USA).

For another assay, the system named is Bak. Description: Bak protein level and Bak foci (Western blot, confocal microscopy). To be noted: PPC-1 transfectants, with LCL204 7.5 μM. The method, then: as §1
Confocal Microscopy and Immunocytochemistry. DU145 cells were grown in 4.3 cm^2 chamber slides (Nalge Nunc) and transfected with YFPmito alone or with the dominant-negative inhibitor of Drp1(K38A) (64) using FuGENE6 (Roche; Indianapolis, IN) according to the manufacturer's instructions using 1 μg of total DNA per chamber. 24 hr after transfection and 30 min prior to treatment with 15 μM LCL204, cells were exposed to zVAD-fmk (50 μM). The slides were fixed with 4% paraformaldehyde for 20 min then permeabilized with 0.2% Triton X-100 for 15 min, followed by blocking with 4% bovine serum albumin for 45 min at RT. Cells were probed with rabbit polyclonal 2-14 anti-Bak antibody (1:5000; BioChem) for 2 hr then stained with goat anti-rabbit Alexa Fluor 543 antibodies (1:250; Molecular Probes) for 45 min. After washing, cells were imaged using the 63x objective of an LSM 510 Zeiss confocal microscope.
Background: A western blot detects proteins with antibodies after separation by electrophoresis.

For the next assay, the system named is PPC-1/pcDNA3 cells. Description: MTS cell viability assay in PPC-1/pcDNA3 cells with kinase inhibitors. Conditions: 20 μM SB-203580, 40 μM SP600125, LCL204 8 hours. The method, then:
MTS cytotoxicity assays for LCL204 treatments. Cell viability was determined using the CellTiter 96 AQueous One Solution Cell Proliferation Assay (Promega; Madison, Wis., USA). 1×10^4 cells per well were seeded in 96-well plates overnight. The next day media was removed and replaced with either 100 μl media with vehicle control or media containing LCL204 at desired concentrations. Assays were carried out according to manufacturer's instruction as previously described (60). For experiments using enzyme inhibitors and LCL204, media was removed and replaced with 50 μl media containing vehicle only or indicated inhibitor. Cells were pretreated 1 hour at 37° C. before adding 50 μl media containing vehicle, inhibitor only, LCL204 only (2× concentration), or a combination. The remainder of the assay was carried out as described above.
Stable transfections. Both CMV-TAM67 and pcDNA3 vectors were from Dr. Michael Birrer (National Cancer Institute; Rockville, Md.). PPC-1 cells (7×10^5) were transfected with 4 μg of DNA in 60 mm dishes using FuGENE6 according to the manufacturer's instructions. Stably transfected clones were selected in 400 μg/mL G418 (Sigma). TAM67 was detected by Western blot analysis using an antibody for c-Jun (Ab-1, Oncogene) as described above.
(In general: Tetrazolium assays rely on reduction of a dye to a coloured formazan, in cell work by metabolically active cells.)

As for `C[S+]([O-])c1ccc(-c2nc(-c3ccncc3)c(-c3ccc(F)cc3)[nH]2)cc1` (stereo not shown) [SB-203580, reference compound], the “basal p73 levels, inhibitor alone” value in the assay on p73 (PPC-1/pcDNA3 and PPC-1/TAM67 cells, 5 hours) is recorded as “lowered basal p73 levels”. For the same compound, the “effect of kinase inhibitor on LCL204-induced p73 induction” value in the assay on p73 (PPC-1 transfectants, with LCL204 7.5 μM) is listed as “blocked the LCL204-induced p73 up-regulation”. Further, the “effect of p38 MAPK inhibitor on LCL204-mediated Bak protein levels” value in the assay with Bak is listed as “did not appear to block”. Also, the “effect on LCL204 cell killing” value with PPC-1/pcDNA3 cells was “inhibited cell killing to a similar extent”.

The values are drawn from patent US8592419B2, “Ceramides and apoptosis-signaling ligand” (MUSC Foundation for Research Development, priority 2004, dated 2013).
